#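 Grown in 96-well plates, cells were treated for 48 hours with each compound at five concentrations. Insufficient inhibition: endpoint recorded as highest concentration tested. GI50: concentration for 50% inhibition of growth. Definition used: TGI = concentration required for complete inhibition of growth.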
# Columns and labels:
# Test in all cases: NCI tumour cell line growth inhibition, 48 h
# CAKI-1 renal = tested on: CAKI-1 renal
# MALME-3M melanoma = tested on: MALME-3M melanoma
# HOP-92 NSCLC = tested on: HOP-92 NSCLC
# KM12 colon = tested on: KM12 colon
# SNB-75 CNS = tested on: SNB-75 CNS
# SK-OV-3 ovarian = tested on: SK-OV-3 ovarian
# BT-549 breast = tested on: BT-549 breast
# ACHN renal = tested on: ACHN renal
# SR leukemia = tested on: SR leukemia
# RPMI-8226 leukemia = tested on: RPMI-8226 leukemia
# HCT-116 colon = tested on: HCT-116 colon
# NCI/ADR-RES ovarian = tested on: NCI/ADR-RES ovarian
# DU-145 prostate = tested on: DU-145 prostate
# U251 CNS = tested on: U251 CNS
# A498 renal = tested on: A498 renal
# TK-10 renal = tested on: TK-10 renal
# EKVX NSCLC = tested on: EKVX NSCLC
# SW-620 colon = tested on: SW-620 colon
# MDA-MB-231 breast = tested on: MDA-MB-231 breast
# UO-31 renal = tested on: UO-31 renal
# HS 578T breast = tested on: HS 578T breast
# SNB-19 CNS = tested on: SNB-19 CNS
# HL-60(TB) leukemia = tested on: HL-60(TB) leukemia
# MOLT-4 leukemia = tested on: MOLT-4 leukemia
# HT29 colon = tested on: HT29 colon
# A549 NSCLC = tested on: A549 NSCLC
# UACC-257 melanoma = tested on: UACC-257 melanoma
# SF-295 CNS = tested on: SF-295 CNS
# OVCAR-4 ovarian = tested on: OVCAR-4 ovarian
# PC-3 prostate = tested on: PC-3 prostate
# NCI-H460 lung = tested on: NCI-H460 lung
# OVCAR-3 ovarian = tested on: OVCAR-3 ovarian
# SK-MEL-2 melanoma = tested on: SK-MEL-2 melanoma
# SF-268 CNS = tested on: SF-268 CNS
# K-562 leukemia = tested on: K-562 leukemia
# NCI-H522 lung = tested on: NCI-H522 lung
# SK-MEL-28 melanoma = tested on: SK-MEL-28 melanoma
# LOX IMVI melanoma = tested on: LOX IMVI melanoma
# HOP-62 NSCLC = tested on: HOP-62 NSCLC
# COLO 205 colon = tested on: COLO 205 colon
# 786-0 renal = tested on: 786-0 renal
# SF-539 CNS = tested on: SF-539 CNS
# MCF7 breast = tested on: MCF7 breast
# RXF 393 renal = tested on: RXF 393 renal
# UACC-62 melanoma = tested on: UACC-62 melanoma
# OVCAR-8 ovarian = tested on: OVCAR-8 ovarian
# CCRF-CEM leukemia = tested on: CCRF-CEM leukemia
# MDA-MB-435 = tested on: MDA-MB-435
# SK-MEL-5 melanoma = tested on: SK-MEL-5 melanoma
# OVCAR-5 ovarian = tested on: OVCAR-5 ovarian
# NCI-H226 lung = tested on: NCI-H226 lung
# HCC-2998 colon = tested on: HCC-2998 colon
# HCT-15 colon = tested on: HCT-15 colon
# IGROV1 ovarian = tested on: IGROV1 ovarian
# M14 melanoma = tested on: M14 melanoma
# T-47D breast = tested on: T-47D breast
# SN12C renal = tested on: SN12C renal
compound,measurement,setting,value
COc1ccc(CCOc2cc3c(cc2OC)CCN(C(=O)NCc2cocn2)C3c2ccc(C)cc2C)cc1 (centres undefined),GI50,CAKI-1 renal,740 nM
same,TGI,CAKI-1 renal,7240 nM
same,GI50,MALME-3M melanoma,1490 nM
same,TGI,MALME-3M melanoma,11700 nM
same,GI50,HOP-92 NSCLC,3470 nM
same,TGI,HOP-92 NSCLC,18200 nM
same,GI50,KM12 colon,542 nM
same,TGI,KM12 colon,8200 nM
same,GI50,SNB-75 CNS,761 nM
same,TGI,SNB-75 CNS,5260 nM
same,GI50,SK-OV-3 ovarian,1260 nM
same,TGI,SK-OV-3 ovarian,40700 nM
same,GI50,BT-549 breast,1010 nM
same,TGI,BT-549 breast,3570 nM
same,GI50,ACHN renal,628 nM
same,TGI,ACHN renal,8890 nM
same,GI50,SR leukemia,341 nM
same,TGI,SR leukemia,2030 nM
same,GI50,RPMI-8226 leukemia,370 nM
same,TGI,RPMI-8226 leukemia,1660 nM
same,GI50,HCT-116 colon,404 nM
same,TGI,HCT-116 colon,21800 nM
same,GI50,NCI/ADR-RES ovarian,610 nM
same,TGI,NCI/ADR-RES ovarian,> 34400 nM
same,GI50,DU-145 prostate,790 nM
same,TGI,DU-145 prostate,5890 nM
same,GI50,U251 CNS,605 nM
same,TGI,U251 CNS,4530 nM
same,GI50,A498 renal,1480 nM
same,TGI,A498 renal,6430 nM
same,GI50,TK-10 renal,2960 nM
same,TGI,TK-10 renal,26700 nM
same,GI50,EKVX NSCLC,3140 nM
same,TGI,EKVX NSCLC,> 100000 nM
same,GI50,SW-620 colon,507 nM
same,TGI,SW-620 colon,> 100000 nM
same,GI50,MDA-MB-231 breast,834 nM
same,TGI,MDA-MB-231 breast,6490 nM
same,GI50,UO-31 renal,1180 nM
same,TGI,UO-31 renal,14200 nM
same,GI50,HS 578T breast,845 nM
same,TGI,HS 578T breast,5150 nM
same,GI50,SNB-19 CNS,1600 nM
same,TGI,SNB-19 CNS,21900 nM
same,GI50,HL-60(TB) leukemia,273 nM
same,TGI,HL-60(TB) leukemia,833 nM
same,GI50,MOLT-4 leukemia,537 nM
same,TGI,MOLT-4 leukemia,> 24800 nM
same,GI50,HT29 colon,371 nM
same,TGI,HT29 colon,2150 nM
same,GI50,A549 NSCLC,1080 nM
same,TGI,A549 NSCLC,> 100000 nM
same,GI50,UACC-257 melanoma,1390 nM
same,TGI,UACC-257 melanoma,19800 nM
same,GI50,SF-295 CNS,897 nM
same,TGI,SF-295 CNS,7030 nM
same,GI50,OVCAR-4 ovarian,1510 nM
same,TGI,OVCAR-4 ovarian,> 100000 nM
same,GI50,PC-3 prostate,631 nM
same,TGI,PC-3 prostate,> 35100 nM
same,GI50,NCI-H460 lung,374 nM
same,TGI,NCI-H460 lung,3810 nM
same,GI50,OVCAR-3 ovarian,603 nM
same,TGI,OVCAR-3 ovarian,10300 nM
same,GI50,SK-MEL-2 melanoma,946 nM
same,TGI,SK-MEL-2 melanoma,3890 nM
same,GI50,SF-268 CNS,940 nM
same,TGI,SF-268 CNS,8920 nM
same,GI50,K-562 leukemia,355 nM
same,TGI,K-562 leukemia,> 55200 nM
same,GI50,NCI-H522 lung,243 nM
same,TGI,NCI-H522 lung,634 nM
same,GI50,SK-MEL-28 melanoma,1010 nM
same,TGI,SK-MEL-28 melanoma,7290 nM
same,GI50,LOX IMVI melanoma,388 nM
same,TGI,LOX IMVI melanoma,4610 nM
same,GI50,HOP-62 NSCLC,1020 nM
same,TGI,HOP-62 NSCLC,17100 nM
same,GI50,COLO 205 colon,835 nM
same,TGI,COLO 205 colon,2760 nM
same,GI50,786-0 renal,617 nM
same,TGI,786-0 renal,8110 nM
same,GI50,SF-539 CNS,346 nM
same,TGI,SF-539 CNS,1630 nM
same,GI50,MCF7 breast,452 nM
same,TGI,MCF7 breast,> 38700 nM
same,GI50,RXF 393 renal,425 nM
same,TGI,RXF 393 renal,2540 nM
same,GI50,UACC-62 melanoma,495 nM
same,TGI,UACC-62 melanoma,5930 nM
same,GI50,OVCAR-8 ovarian,358 nM
same,TGI,OVCAR-8 ovarian,10100 nM
same,GI50,CCRF-CEM leukemia,458 nM
same,TGI,CCRF-CEM leukemia,9660 nM
same,GI50,MDA-MB-435,296 nM
same,TGI,MDA-MB-435,919 nM
same,GI50,SK-MEL-5 melanoma,509 nM
same,TGI,SK-MEL-5 melanoma,1390 nM
same,GI50,OVCAR-5 ovarian,1350 nM
same,TGI,OVCAR-5 ovarian,> 100000 nM
same,GI50,NCI-H226 lung,1020 nM
same,TGI,NCI-H226 lung,5160 nM
same,GI50,HCC-2998 colon,1320 nM
same,TGI,HCC-2998 colon,> 35000 nM
same,GI50,HCT-15 colon,407 nM
same,TGI,HCT-15 colon,> 37500 nM
same,GI50,IGROV1 ovarian,905 nM
same,TGI,IGROV1 ovarian,> 100000 nM
same,GI50,M14 melanoma,765 nM
same,TGI,M14 melanoma,5740 nM
same,GI50,T-47D breast,1060 nM
same,TGI,T-47D breast,9020 nM
same,GI50,SN12C renal,831 nM
same,TGI,SN12C renal,4850 nM
